The assay concerns PPARα target gene (ACO and CPT-1) expression. Kind of assay: PPARα target gene (ACO and CPT-1) expression by quantitative RT-PCR in Hepa 1-6 cells. It is filed as cell-based. The settings on record: Hepa 1-6 mouse hepatoma cells, 24 h, serum-free DMEM. How it is done: RT-PCR gene expression analysis and binding assays were employed to address this objective. Wy14,643, 16:0/18:1-GPC, and 18:1/16:0-GPC on PPARα target gene (ACO and CPT-1) expression was measured by quantitative RT-PCR in Hepa 1-6 cells treated for 24 h as in FIG. 6A. Results are mean±SEM of 9 separate experiments. *, P<0.05 compared to control (Ctrl, 80% PBS/20% DMSO).
The C57BL/6 mouse hepatoma cell line Hepa 1-6 (ATCC, CRL-1830) was expanded in DMEM with 10% fetal bovine serum. For experiments, cells were cultured to 50-60% confluence, washed twice with PBS, and the medium was changed to serum-free DMEM supplemented with the various types and concentrations of phosphatidylcholine (sonicated to homogeneity in PBS/1% ethanol/4% fatty acid-free BSA), Wy14,643 (dissolved in 80% PBS/20% DMSO), or vehicle-only solutions. 24 h later, cells were washed, RNA prepared, and ACO and CPT-1 expression levels were determined by quantitative RT-PCR (see FIG. 6). For siRNA experiments, 50-60% confluent cells were treated with siRNAs or their scrambled controls (all diluted in PBS) for 72 h. Following the 72 h siRNA treatment, another set of cells received 16:0/18:1-GPC (using a concentration based on dose-response experiments) for an additional 24 h. Stealth™ siRNA oligonucleotides were used to inhibit the gene expression of mouse ChPT1 ([…]) (SEQ ID NO: 1) and CEPT1 ([…]) (SEQ ID NO: 2) were from Invitrogen (Carlsbad, Calif.).
Total RNA was extracted from Hepa 1-6 cells and liver using Trizol (Invitrogen) and treated with DNase I (RNase-free, Roche Molecular Biochemicals). Reverse transcription to cDNA and real-time quantitative PCR were performed using previously published procedures and primer-probe sequences for ACO and CPT-1 (Chakravarthy et al., 2005). […] Relative mRNA levels were calculated using both the comparative CT and standard curve methods normalized to ribosomal protein L32, an invariant internal control. […]

Structures are written as SMILES.

On to `CCCCCCCC/C=C\CCCCCCCC(=O)O[C@H](COC(=O)CCCCCCCCCCCCCCC)COP(=O)([O-])OCC[N+](C)(C)C` [16:0/18:1-GPC, 1-palmitoyl-2-oleoyl-sn-glycerol-3-phosphocholine], for which the “expression of PPARα-dependent genes ACO and CPT-I” value was “induces PPARα-dependent gene expression”. For the same compound, the “expression of PPARα-dependent genes ACO and CPT-I” value (listed as 1-palmitoyl-2-oleoyl-sn-glycerol-3-phosphocholine) is “increased expression of both ACO and CPT-I to a similar degree as equimolar amounts of the known PPARα activator Wy14,643”.

The values are drawn from patent publication US8337835B2, “Use of an endogenous ligand for peroxisome proliferator activated receptor alpha to treat liver disorders” (priority 2009, dated 2012).
